Where “and” joins values, the source holds several entries; their conditions need not be identical. Equal entries are not always repeated.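 All cell lines were grown in 96-well plates and treated with compound for 48 hours. GI50 is the concentration that inhibits growth by half. At the TGI there is no net growth.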
What was measured:
Test in all cases: NCI tumour cell line growth inhibition, 48 h
DLD-1 colon = tested on: DLD-1 colon
LXFL 529 NSCLC = tested on: LXFL 529 NSCLC
RXF-631 renal = tested on: RXF-631 renal
SNB-78 CNS = tested on: SNB-78 CNS
XF 498 CNS = tested on: XF 498 CNS
DU-145 prostate = tested on: DU-145 prostate
HS 578T breast = tested on: HS 578T breast
MDA-N = tested on: MDA-N
PC-3 prostate = tested on: PC-3 prostate
P388 leukemia = tested on: P388 leukemia
P388/ADR leukemia = tested on: P388/ADR leukemia
SN12K1 renal = tested on: SN12K1 renal

SMILES	TGI (DLD-1 colon) [µM]	TGI (LXFL 529 NSCLC) [µM]	TGI (RXF-631 renal) [µM]	TGI (SNB-78 CNS)	TGI (XF 498 CNS) [µM]	also measured
COc1cc(C(C)c2cc3c(cc2OCCOCCOc2cc4c(cc2C(C)c2cc(OC)c(OC)c(OC)c2)OCO4)OCO3)cc(OC)c1OC (stereo not given)	> 100	> 100	> 100	> 10 µM	> 10	GI50 (DLD-1 colon): > 100 µM; GI50 (LXFL 529 NSCLC): > 100 µM; GI50 (RXF-631 renal): > 100 µM
O=S(O)CCCCSSCCCCS(=O)(O)=S	> 100	61.2	> 100	> 100 µM	33.2	–
COc1ccc2c(CCNS(=O)(=O)c3ccccc3)c(C(C)=O)[nH]c2c1[N+](=O)[O-]	–	> 100	> 100	> 100 µM	–	–
CC(=O)N1C(=O)C(=O)c2cc(Cl)ccc21	> 100	> 100	> 100	> 100 µM	65.2	–
CC(C)c1cccc2sc(NC(=O)C(=O)CC(=O)c3ccc(F)cc3)nc12	> 100	> 100	> 100	> 100 µM	> 100	–
CC(=O)C1C(=O)C(=O)N(c2ccc(Cl)cc2C)C1=O (stereo not given)	> 100	> 100	> 100	> 100 µM	–	–
NC(N)=NS(=O)(=O)c1ccc(NC(=O)c2ccc(Cl)c3c(Nc4ccc(S(=O)(=O)N=C(N)N)cc4)c4ccccc4nc23)cc1	> 100	> 100	> 100	> 100 µM	–	–
CN1NC(c2ccccc2)=C(C#N)C(=O)CC1c1ccccc1Cl (stereo not given)	> 100	> 100	> 100	> 100 µM	> 100	–
CCCCC/C=C1\CCC(CN2CCOCC2)C1=O (stereo not given)	19.2	16.6	44.9	47.4 µM	31.8	TGI (DU-145 prostate): 33.2 µM; TGI (HS 578T breast): > 100 µM; TGI (MDA-N): 25.4 µM; TGI (PC-3 prostate): 30.9 µM
CCCCCCCCCCSS(=O)(=O)c1ccc(C)cc1	29.8	27.6	17.2	29.5 µM	26	–
CCC1(c2ccncc2)CCC(=O)NC1=O (stereo not given)	> 100	> 100	> 100	> 100 µM	> 100	–
CCOc1ccccc1N=C(NC(=O)CC)SC	> 100	> 100	> 100	> 10 µM	–	GI50 (DLD-1 colon): > 10 µM; GI50 (LXFL 529 NSCLC): > 100 µM; GI50 (RXF-631 renal): > 100 µM
[O-]c1c(-c2ccccc2)[se]c(-c2ccccc2)[n+]1-c1ccccc1	4.48	27.8	29.9	14 µM	–	–
Cc1ccc(S(=O)(=O)NC(C)C(=O)O)cc1 (stereo not given)	> 100	> 100	> 100	–	> 100	–
O=c1c2cc(-c3ccccc3)sc2nc2sc(-c3ccccc3)nn12	> 100	> 100	> 100	> 100 µM	> 100	–
CCN(CC)CCNc1ccc(CO)c2sc3ccccc3c(=O)c12	–	31.6	–	35.1 µM and 28.4 µM	24.5	GI50 (DU-145 prostate): 2.99 µM; TGI (DU-145 prostate): 9.87 µM and 27.6 µM; GI50 (HS 578T breast): 4.26 µM and 9.64 µM; TGI (HS 578T breast): 24.8 µM and 26.8 µM; TGI (MDA-N): 16.6 µM; TGI (P388 leukemia): 8.68 µM; TGI (P388/ADR leukemia): 31.3 µM; GI50 (PC-3 prostate): 3.65 µM; TGI (PC-3 prostate): 17.5 µM and 17.8 µM; TGI (SN12K1 renal): 17.4 µM
CC[O+]=c1cccc2ssnc1-2	> 100	> 100	> 100	> 100 µM	66.9	–
C=CC1(C)/C(=N\O)C(C)(CC)C(=O)N1O (stereo not given)	> 100	> 100	> 100	> 100 µM	> 100	–
O=C1c2ccccc2C(=O)N1C/C=N/NS(=O)(=O)c1ccc(Cl)cc1	> 100	> 100	> 100	–	> 100	–
